Source: patent US4292321A, “1,3,8-Triazaspirodecane-4-ones, pharmaceutical compositions thereof and method of use thereof” (Warner-Lambert Company, priority 1980, dated 1981)
Counter-ions that a name gives are not always drawn. Like-named read-outs stand apart in the source and are kept apart here.

Molecular target: T1, dopamine receptor (Bos taurus, UniProt P20288)
T1 construct: from tissue
Assay: 3H-haloperidol receptor binding assay (HRBA)
Details: for inhibition at 0.01 µM / inhibition at 0.1 µM / inhibition at 0.001 µM: read-out: inhibition of 3H-haloperidol binding
Source text: The compounds of this invention are useful because of their valuable pharmacological properties. […] As with other known neuroleptics, the compounds of this invention readily displace ^3 H-haloperidol from dopamine receptor binding sights in the ^3 H-haloperidol receptor binding assay (HRBA). […] The HRBA screen is described by I. Creese, D. R. Burt and S. H. Snyder, Science 142: 480 (1976) and by B. Seeman, T. Lee, M. Chani-Wong and K. Wong, Nature 261: 717 […].

T1 sequence (P20288 whole entry): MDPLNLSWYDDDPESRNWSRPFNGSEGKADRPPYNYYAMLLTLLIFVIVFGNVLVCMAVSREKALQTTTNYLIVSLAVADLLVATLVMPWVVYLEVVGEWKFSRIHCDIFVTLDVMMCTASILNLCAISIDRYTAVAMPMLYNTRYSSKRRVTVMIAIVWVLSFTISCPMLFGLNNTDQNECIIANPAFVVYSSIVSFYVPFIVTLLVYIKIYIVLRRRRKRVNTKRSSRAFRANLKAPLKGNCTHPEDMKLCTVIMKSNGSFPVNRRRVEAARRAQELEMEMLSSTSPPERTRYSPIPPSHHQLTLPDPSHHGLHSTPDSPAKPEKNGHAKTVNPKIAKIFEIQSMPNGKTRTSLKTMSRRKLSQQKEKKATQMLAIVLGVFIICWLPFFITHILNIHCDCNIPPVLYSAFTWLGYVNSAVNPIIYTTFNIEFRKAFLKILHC

SMILES | inhibition at 0.01 µM | inhibition at 0.1 µM | inhibition at 0.01 µM (10 n moles concentration) | inhibition at 0.1 µM (100 n moles concentration) | also measured
O=C1NCN(c2ccccc2)C12CCN(CCCN(c1ccc(F)cc1)c1ccc(F)cc1)CC2 [Example 1, 8-[3-(Bis-[4-fluorophenyl]amino)propyl]-1-phenyl-1,3,8-triazaspiro[4,5]decan-4-one hydrobromide] | ~73% | ~77% | – | – | –
O=C1NCN(c2ccc(F)cc2)C12CCN(CCCN(c1ccccc1)c1ccccc1)CC2 [Example 2, 8-[3-(Diphenylamino)propyl]-1-(4-fluorophenyl)-1,3,8-triazaspiro[4,5]decan-4-one] | ~76% | ~85% | – | – | –
Cc1ccc(N2CNC(=O)C23CCN(CCCN(c2ccccc2)c2ccccc2)CC3)cc1 [Example 3, 8-[3-(Diphenylamino)propyl]-1-(4-methylphenyl)-1,3,8-triazaspiro[4,5]decan-4-one] | ~71% | ~87% | – | – | –
COc1ccc(N2CNC(=O)C23CCN(CCCN(c2ccccc2)c2ccccc2)CC3)cc1 [Example 4, 8-[3-(Diphenylamino)propyl]-1-(4-methoxyphenyl)-1,3,8-triazaspiro[4,5]decan-4-one] | ~67% | ~98% | – | – | –
O=C1NCN(c2ccc(F)cc2)C12CCN(CCCN(c1ccc(F)cc1)c1ccc(F)cc1)CC2 [Example 5, 8-[3-[Bis-(4-fluorophenyl)amino]propyl]-1-(4-fluorophenyl)-1,3,8-triazaspiro[4,5]decan-4-one] | ~84% | ~100% | – | – | –
O=c1[nH]c2ccccc2n1C1CCN(CCCN(c2ccc(F)cc2)c2ccc(F)cc2)CC1 [Example 6, 1-(1[3-[Bis(4-fluorophenyl)amino]propyl]-4-piperidyl)-1,3-dihydro-2H-benzimidazol-2-one] | – | – | ~78% | – | inhibition at 0.001 µM (1 n mole concentration): ~50%
O=c1[nH]c2ccccc2n1C1=CCN(CCCN(c2ccc(F)cc2)c2ccc(F)cc2)CC1 [Example 7, 1-[1-[3-[Bis(4-fluorophenyl)amino]propyl]-1,2,3,6-tetrahydro-4-pyridinyl]-1,3-dihydro-2H-benzimidazol-2-one hydrochloride] | ~22% | ~67% | – | – | –
Fc1ccc(N(CCCN2CCC(n3c(=S)[nH]c4ccccc43)CC2)c2ccc(F)cc2)cc1 [Example 8, 1-[1-(3-[Bis(4-fluorophenyl)amino]propyl)-4-piperidinyl]-1,3-dihydro-2H-benzimidazole-2-thione] | – | – | ~28% | ~89% | –
O=c1[nH]c2ccccc2n1C1CCN(CCCN(c2ccccc2)c2ccccc2)CC1 [Example 9, 1-[1-(3-(Diphenylamino]propyl)-4-piperidinyl]-1,3-dihydro-2H-benzimidazol-2-one hydrochloride] | ~68% | ~91% | – | – | –
O=c1[nH]c2ccccc2n1C1CCN(CCCN(c2ccccc2)c2ccc([N+](=O)[O-])cc2)CC1 [Example 10, 1,3-Dihydro-1-[1-(3-[(4-nitrophenyl)phenylamino]propyl)-4-piperidinyl]-2H-benzimidazol-2-one hydrochloride] | ~17% | ~75% | – | – | –
Cc1cccc(N(CCCN2CCC(n3c(=O)[nH]c4ccccc43)CC2)c2ccccc2)c1 [Example 11, 1,3-Dihydro-1-[1-(3-[(3-methylphenyl)phenylamino]propyl-4-piperidinyl]-2H-benzimidazol-2-one hydrochloride] | – | – | ~61% | ~91% | –
Cc1cc2[nH]c(=O)n(C3CCN(CCCN(c4ccccc4)c4ccccc4)CC3)c2cc1C [Example 13, 1-[1-(3-[Diphenylamino]propyl)-4-piperidiyl]-1,3-dihydro-5,6-dimethyl-2H-benzimidazol-2-one] | – | – | ~53% | ~93% | –
O=c1[nH]c2ccccc2n1C1CCN(CCCN(c2ccc(F)cc2)c2ccccc2F)CC1 [Example 14, 1,3-Dihydro-1-[1-[3-[(4-fluorophenyl)-(2-fluorophenyl)amino]propyl]-4-piperidinyl]-2H-benzimidazol-2-one] | – | – | ~92% | ~100% | inhibition at 0.001 µM (1 n mole concentration): ~56%
O=c1[nH]c2ccccc2n1C1CCN(CCCN(c2ccccc2)c2ccc(F)cc2)CC1 [Example 15, 1,3-Dihydro-1-[1-[3-[(4-fluorophenyl)phenylamino]propyl]-4-piperidinyl]-2H-benzimidazol-2-one] | – | – | ~74% | ~100% | –
Cc1cc2c(cc1C)n(C1CCN(CCCN(c3ccccc3)c3ccccc3)CC1)c(=O)n2C [Example 16, 1-[1-([3-Diphenylamino]propyl)-4-piperidinyl]-1,3-dihydro-3,5,6-trimethyl-2H-benzimidazol-2-one butenedioate] | – | – | ~6% | ~60% | –
Cc1cc2[nH]c(=O)n(C3CCN(CCCN(c4ccc(F)cc4)c4ccc(F)cc4)CC3)c2cc1C [Example 17, 1-[1-[3-[Bis-(4-fluorophenyl)amino]propyl]-4-piperidyl]-1,3-dihydro-5,6-dimethyl-2H-benzimidazol-2-one] | – | – | ~85% | ~100% | inhibition at 0.001 µM (1 n mole concentration): ~29%

SMILES | inhibition at 0.01 µM | inhibition at 0.1 µM | inhibition at 0.01 µM (10 n moles concentration) | inhibition at 0.1 µM (100 n moles concentration) | also measured
OC1(c2cccc(F)c2)CCN(CCCN(c2ccccc2)c2ccccc2)CC1 [Example 18, 1-[3-(Diphenylamino)propyl]-4-(3-fluorophenyl)-4-piperidinol ethanedioate] | ~23% | ~83% | – | – | –
OC1(c2ccc(F)cc2)CCN(CCCN(c2ccc(F)cc2)c2ccc(F)cc2)CC1 [Example 19, 4-(4-Fluorophenyl)-1-(3-[bis(4-fluorophenyl)amino]propyl)-4-piperidinol hydrochloride] | ~82% | – | – | – | inhibition at 0.001 µM: ~25%
OC1(c2ccc(Cl)cc2)CCN(CCCN(c2ccc(F)cc2)c2ccc(F)cc2)CC1 [Example 20, 1-(3-[Bis(4-fluorophenyl)amino]propyl)-4-(4-chlorophenyl)-4-piperidinol ethanedioate] | ~74% | ~100% | – | – | –
C1=C(Oc2ccccc2)CCN(CCCN(c2ccccc2)c2ccccc2)C1 [Example 21, 3,6-Dihydro-4-phenoxy-N,N-diphenyl-1(2H)-pyridinepropanamine ethanedioate.] | – | – | ~8% | ~48% | –
c1ccc(OC2CCN(CCCN(c3ccccc3)c3ccccc3)CC2)cc1 [Example 22, 4-Phenoxy-N,N-diphenyl-1-piperidinepropanamine ethanedioate] | ~7% | ~59% | – | – | –
FC(F)(F)c1cccc(OC2=CCN(CCCN(c3ccccc3)c3ccccc3)CC2)c1 [Example 23, 3,6-Dihydro-N,N-diphenyl-4-[(3-trifluoromethyl)phenoxy]-1(2H)-pyridinepropanamine ethanedioate] | – | – | ~6% | ~24% | –
FC(F)(F)c1cccc(OC2CCN(CCCN(c3ccccc3)c3ccccc3)CC2)c1.O=C(O)C(=O)O [Example 24, N,N-diphenyl-4-[3-(trifluoromethyl)phenoxy]-1-piperidinepropanamine ethanedioate] | – | ~8% | – | – | inhibition of 3H-haloperidol binding (10 n moles concentration): no inhibition
Fc1ccc(OC2=CCN(CCCN(c3ccc(F)cc3)c3ccc(F)cc3)CC2)cc1 [Example 25, 4-(4-Fluorophenoxy)-N,N-bis(4-fluorophenyl)-1,2,3,6-tetrahydro-1-pyridinepropanamine-d-2,3-dihydroxybutanedioate] | – | – | ~43% | – | inhibition of 3H-haloperidol binding (1 n mole concentration): no inhibition
Clc1ccc(OC2=CCN(CCCN(c3ccccc3)c3ccccc3)CC2)cc1Cl.O=C(O)C(=O)O [Example 26, 4-(3,4-Dichlorophenoxy)-3,6-dihydro-N,N-diphenyl-1(2H)-pyridinepropanamine ethanedioate] | – | ~26% | – | – | inhibition of 3H-haloperidol binding (10 n moles concentration): no inhibition
Fc1ccc(N2CCN(CCCN(c3ccccc3)c3ccccc3)CC2)cc1 [Example 31, 4-(4-Fluorophenyl)-N,N-diphenyl-1-piperazinepropanamine] | – | – | – | ~12% | inhibition of 3H-haloperidol binding (10 n moles concentration): no inhibition
c1ccc(CN2CCN(CCCN(c3ccccc3)c3ccccc3)CC2)cc1 [Example 32, N,N-diphenyl-4-(phenylmethyl)-1-piperazinepropanamine ethanedioate] | ~16% | ~33% | – | – | –
CC(C)Sc1ccccc1N1CCN(CCCN(c2ccccc2)c2ccccc2)CC1.Cl [Example 33, 4-[2-[(1-Methylethyl)thio]phenyl]-N,N-diphenyl-1-piperazinepropanamine hydrochloride] | – | ~28% | – | – | inhibition of 3H-haloperidol binding (10 n moles concentration): no inhibition
CCCSc1ccccc1N1CCN(CCCN(c2ccccc2)c2ccccc2)CC1 [Example 34, N,N-diphenyl-4-[2-(propylthio)phenyl]-1-piperazinepropanamine ethanedioate] | ~6% | ~64% | – | – | –
COc1ccccc1N1CCN(CCCN(c2ccc(F)cc2)c2ccc(F)cc2)CC1 [Example 35, N,N-bis(4-fluorophenyl)-4-(2-methoxyphenyl)-1-piperazinepropanamine dihydrochloride] | ~28% | ~79% | – | – | –
OCCN1CCN(CCCN(c2ccc(F)cc2)c2ccc(F)cc2)CC1 [Example 36, 4-[3-[Bis(4-fluorophenyl)amino]propyl]-1-piperazineethanol dihydrochloride] | ~21% | ~62% | – | – | –
Cl.Cl.Fc1ccc(N(CCCN2CCN(c3ccccc3)CC2)c2ccc(F)cc2)cc1 [Example 37, N,N-bis(4-fluorophenyl)-4-phenyl-1-piperazinepropanamine dihydrochloride] | – | ~37% | – | – | inhibition of 3H-haloperidol binding (10 n moles concentration): no inhibition
